Data from BigSolDB 2.1.

O=C(O)c1ccc(C(=O)O)o1
solubility (mole fraction)
Details	in 1,2-dimethoxyethane	in 1,4-dioxane	in THF	in diglyme
293.15 K	–	–	0.00772	–
298.15 K	–	–	0.00826	–
303.15 K	0.00344	0.00421	0.00884	0.00653
308.15 K	0.00372	0.00458	0.00939	0.00704
313.15 K	0.0039	0.00481	0.00998	0.00735
318.15 K	0.0041	0.00521	0.0108	0.00767
323.15 K	0.00432	0.00573	0.0116	0.00801
328.15 K	0.00458	0.00631	0.0122	0.00842
333.15 K	0.00487	0.00739	0.0128	0.00887
338.15 K	0.00528	0.00827	–	0.00937
343.15 K	0.00558	0.00886	–	0.00965
348.15 K	–	–	–	0.0103
353.15 K	–	–	–	0.0105
